The target in data set [1] is T1, Mammalian Thymidylate Synthase (Homo sapiens, UniProt P04818).
T1 construct: made in house; host or cells: Escherichia coli
Briefly: Thymidylate synthase inhibition, tritium release assay. Format: biochemical.

In data set [2] the test system is SW480 human colon adenocarcinoma. Put plainly: Tumor cell culture cytotoxicity (MTT dye reduction), SW480.
Procedure: SW480 and WiDr colon adenocarcinomas, MCF-7 breast adenocarcinoma, A427 lung carcinoma and MOLT-4 T-cell leukemia were used for the primary screening of compounds. […] MCF-7, A427 and SW480 were grown in the above medium further supplemented with sodium pyruvate.
Cells are seeded into 96-well plates using a Perkin-Elmer Pro/pette. SW480 and A427 were seeded at 8,000 cells per well, MCF-7 at 10,000, Widr at 7500, and MOLT-4 at 12,500 cells per well, all in 150 µl of medium. Prior to the addition of drugs, cultures were incubated for 24 hrs at 37°. Compounds were added at 2×concentration in 150 l of medium and each concentration was assayed in triplicate. If DMSO or ethanol were used to solubilize compounds, appropriate controls were run if the concentration exceeded 0.01%. Cultures were incubated for 72 hours (96 hours for SW480 and MCF-7) in a 37° humidified incubator at 5% CO2. Inhibition of cell growth was measured using the MTT dye reduction assay.
Cell dilutions for a standard curve were prepared from a 72 hour log-phase culture. Serial dilutions were seeded in triplicate in 96-well plates and incubated at 37 degrees for one hour. MTT (3-(4,5-dimethylthiazol-2-yl)-2,5-diphenyltetrazolium bromide) was dissolved in PBS at 5 mg/ml and sonicated for 30 seconds. Using the Perkin Elmer Pro/pette, 200 μl of medium was removed and 100 μl of MTT added to the wells of the standard curve and test plates. Suspension cultures were spun for 5 min at 1000 rpm before removing medium from the wells. Plates were incubated for 1 hour at 370 on a platform shaker. Following this incubation 100 ml of medium was removed from the wells and 100 μl of DMSO added to each well. The plates were sonicated for approximately 10 seconds to solubilize the precipitated formazan dye. The absorbance of each well was measured using a Titertek Multiscan MC microtiter plate reader at 570 nm with a reference wavelength of 750 nm. Data was collected using a Mariachi Seed-2 and stored and analyzed using an IBM-AT and Lotus 1-2-3 software.
[3] abbreviates: Homo sapiens, SW480, read-out: Tumor Cell Culture Cytotoxicity IC50 SW480, Table B, fully aromatic 3-amino derivatives.
Where [4] appears, read: Homo sapiens, SW480, read-out: Cell Culture Cytotoxicity CCCT SW-480, Table F, fully aromatic p-aminobenzoylglutamates.
Setting [5] is: Homo sapiens, SW480, read-out: Tumor Cell Culture Cytotoxicity IC50 SW480, Table E, fully aromatic 3-methyl derivatives.
Where [6] appears, read: Homo sapiens, SW480, read-out: Cell Culture Cytotoxicity CCCT SW-480, Table G, dihydrobenzoquinazoline p-aminobenzoylglutamates.

In patent publication US6762188B1, “Pharmaceutically active benzoquinazoline compounds” (SmithKline Beecham Corporation, priority 1990, dated 2004) one finds IC50 data, which are given here for 28 compounds.

The structures appear in SMILES notation. Where two headings read alike, the source gives them in different places. Where only a bound is given, the exact number is not on record here.

T1 sequence (P04818 whole entry): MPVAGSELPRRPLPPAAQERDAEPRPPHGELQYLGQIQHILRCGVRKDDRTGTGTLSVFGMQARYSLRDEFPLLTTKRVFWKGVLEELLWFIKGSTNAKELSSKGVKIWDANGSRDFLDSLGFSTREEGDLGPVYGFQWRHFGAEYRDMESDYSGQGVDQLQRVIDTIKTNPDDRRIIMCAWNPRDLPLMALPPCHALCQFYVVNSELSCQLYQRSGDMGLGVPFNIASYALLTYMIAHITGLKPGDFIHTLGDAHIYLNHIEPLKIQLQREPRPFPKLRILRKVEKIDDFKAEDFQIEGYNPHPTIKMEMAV

Take `Nc1nc2ccc3ccc(Br)c([N+](=O)[O-])c3c2c(=O)[nH]1` [3-Amino-9-bromo-10-nitrobenzo(f)quinazolin-1(2H)-one]: the IC50 in data set [1] is < 1 µM; in data set [2] (setting [3]) it was 20 µM. For the compound `Cc1nc2ccc3ccc(CCc4ccc(C(=O)N[C@@H](CCC(=O)O)C(=O)O)cc4)cc3c2c(=O)[nH]1` [N-(4-(2-(1,2-Dihydro-3-methyl-1-oxobenzo[f]quinazolin-9-yl)ethyl)benzoyl)-L-glutamic acid], the IC50 in data set [2] (setting [4]) is 9 µM. With `Cc1nc2ccc3ccc(CNc4ccc(C#N)cc4)cc3c2c(=O)[nH]1` [4-(((1,2-Dihydro-3-methyl-1-oxobenzo(f)quinazolin-9-yl)methyl)amino)benzonitrile], the IC50 in data set [2] (setting [5]) stood at 0.03 µM. For `Nc1ccc2ccc3nc(N)[nH]c(=O)c3c2c1` [3,9-Diaminobenzo(f)quinazolin-1(2H)-one], the IC50 in data set [1] was < 1 µM; in data set [2] (setting [3]) it was 80 µM. Taken in the same sequence, the figures for `Nc1nc2ccc3c([N+](=O)[O-])c(Br)ccc3c2c(=O)[nH]1` [3-Amino-8-bromo-7-nitrobenzo(f)quinazolin-1(2H)-one] were 1 to 300 µM and 25 µM. The matching figures for `Cc1cc2nc(N)nc(O)c2c2cc(Cl)ccc12` [3-Amino-9-chloro-6-methylbenzo(f)quinazolin-1(2H)-one]: < 1 µM and 2 µM. With `C#CCN(CC#C)S(=O)(=O)c1ccc2c(c1)CCc1nc(N)[nH]c(=O)c1-2` [8-SO2N-(Propargyl)2, 3-Amino-1,2,5,6-tetrahydro-1-oxo-N,N-bis(prop-2-vnyl)benzo[f]quinazoline-8-sulfonamide], the IC50 in data set [2] (read-out: Tumor Cell Culture Cytotoxicity IC50 SW480, Table C, 5,6-dihydro 3-amino derivatives) was determined as 60 µM.

For the compound `Cc1nc2ccc3ccc(CNc4ccccc4)cc3c2c(=O)[nH]1` [3-Methyl-9-(anilinomethyl)benzo(f)quinazolin-1(2H)-one], the IC50 in data set [2] (setting [5]) was determined as 7 µM. With `Nc1nc2c(c(=O)[nH]1)-c1cc(S(=O)(=O)Nc3ccc(C(=O)N[C@@H](CCC(=O)O)C(=O)O)cc3)c(Br)cc1CC2` [N-(4-(((3-Amino-8-bromo-1,2,5,6-tetrahydro-1-oxobenzo(f)quinazolin-9-yl)sulfonyl)amino)benzoyl)-L-glutamic acid], the IC50 in data set [2] (setting [6]) is > 50 µM. With `Cc1nc2ccc3ccc(CNc4ccc5c(=O)n([C@@H](CCC(=O)O)C(=O)O)sc5c4)cc3c2c(=O)[nH]1` [CH3,9-CH2NH, 2′-SNglu, (S)-2-(2.3-Dihydro-6-(((1,2-dihydro-3-methyl-1-oxobenzo[f]quinazolin-9-yl)methyl)amino)-3-oxo-1,2-benxisothiazol-2-yl)glutaric acid], in data set [2] (read-out: Cell Culture Cytotoxicity CCCT SW-480, Table F, fully aromatic p-aminobenzoylglutamates), the IC50 was 2 µM.

As to `Cc1nc2ccc3ccc(CNc4ccc(C(=O)CC(CCC(=O)O)C(=O)O)cc4)cc3c2c(=O)[nH]1` (racemic) [(RS)-2-(2-(4-(((1,2-Dihydro-3-methyl-1-oxobenzo[f]quinazolin-9-yl)methyl)amino)phenyl)-2-oxoethyl)glutaric acid], in data set [2] (setting [5]), the IC50 was found to be 0.03 µM. With `Nc1nc2c(c(=O)[nH]1)-c1ccc(S(=O)(=O)Nc3ccc(C(=O)N[C@@H](CCC(=O)O)C(=O)O)cc3)cc1CC2` [N-(4-(((3-Amino-1,2,5,6-tetrahydro-1-oxobenzo(f)quinazolin-8-yl)sulfonyl)amino)benzoyl)-L-glutamic acid], the IC50 in data set [2] (setting [6]) stood at 25 µM. On to `Cc1nc2ccc3ccc(/C=C/c4ccc(C(=O)N[C@@H](CCC(=O)O)C(=O)O)cc4)cc3c2c(=O)[nH]1` [(E)-N-(4-(2(1,2-Dihydro-3-methyl-1-oxobenzo[f]quinazolin-9-yl)vinyl)benzoyl)-L-glutamic acid], for which the IC50 in data set [2] (setting [4]) was > 100 µM. With `Cc1nc2ccc3ccc(Oc4ccc(C#N)cc4)cc3c2c(=O)[nH]1` [4-((1,2-Dihydro-3-methyl-1-oxobenzo[f]quinazolin-9-yl)oxy)benzonitrile], the IC50 in data set [2] (setting [5]) is > 10 µM.

In the case of `Cc1nc2c(c(=O)[nH]1)-c1cc(S(=O)(=O)Nc3ccc(F)cc3)ccc1CC2` [4′-Fluoro-1,2,5,6-tetrahydro-3-methyl-1-oxobenzo(f)quinazoline-9-sulfonanilide], the IC50 in data set [2] (Homo sapiens, SW480, read-out: Tumor Cell Culture Cytotoxicity IC50 SW480, Table D, 5,6-dihydro 3-methyl derivatives) was 25 µM. In the case of `Cc1nc2ccc3ccc(CN(C)c4ccc5c(c4)CN([C@@H](CCC(=O)O)C(=O)O)C5=O)cc3c2c(=O)[nH]1` [(S)-2-(5-(((1,2-Dihydro-3-methyl-1-oxobenzo[f]quinazolin-9-yl)methyl)methylamino)-1-oxo-2-isoindolinyl)glutaric acid], the IC50 in data set [2] (setting [4]) was 0.5 µM.

Take `CCN(CC)S(=O)(=O)c1cc2c(cc1Br)CCc1nc(N)[nH]c(=O)c1-2` [3-Amino-8-bromo-N,N-diethyl-1,2,5,6-tetrahydro-1-oxobenzo(f)quinazoline-9-sulfonamide]: the IC50 in data set [2] (Homo sapiens, SW480, read-out: Tumor Cell Culture Cytotoxicity IC50 SW480, Table C, 5,6-dihydro 3-amino derivatives) was found to be 7.5 µM. Take `Cc1nc2ccc3ccc(CNc4ccc(C(=O)O)cc4)cc3c2c(=O)[nH]1` [4-(((1,2-Dihydro-3-methyl-1-oxobenzo[f]quinazolin-9-yl)methyl)amino)benzoic acid]: in data set [2] (setting [5]), the IC50 came out at 2.2 µM. In the case of `C=Cc1ccc2ccc3nc(N)[nH]c(=O)c3c2c1` [Example 9-Ethenyl, 3-Amino-9-vinylbenzo[f]quinazolin-1(2H)-one], in data set [2] (setting [3]), the IC50 worked out at 6 µM. In the case of `Cc1nc2c(c(=O)[nH]1)-c1cc(S(=O)(=O)N(C)c3ccc(C(=O)N[C@@H](CCC(=O)O)C(=O)O)cc3)ccc1CC2` [N-(4-(Methyl((1,2,5,6-tetrahydro-3-methyl-1-oxobenzo(f)quinazolin-9-yl)sulfonyl)amino)benzoyl)-L-glutamic acid], the IC50 in data set [2] (setting [6]) is > 50 µM. Turning to `C#CCN(c1ccc(C(=O)N[C@@H](CCC(=O)O)C(=O)O)cc1)S(=O)(=O)c1ccc2c(c1)CCc1nc(N)[nH]c(=O)c1-2` [N-(4-(((3-Amino-1,2,5,6-tetrahydro-1-oxobenzo(f)quinazolin-8-yl)sulfonyl)(2-propynyl)amino)benzoyl)-L-glutamic acid], the IC50 in data set [2] (setting [6]) is > 50 µM. Take `Cc1nc2ccc3ccc(CNc4ccc([N+](=O)[O-])cc4)cc3c2c(=O)[nH]1` [3-Methyl-9-((4-nitroanilino)methyl)benzo)(f)quinazolin-1(2H)-one]: the IC50 in data set [2] (setting [5]) turned out to be 0.4 µM. On to `Cc1nc2ccc3cc(CNc4ccc(C(=O)N[C@@H](CCC(=O)O)C(=O)O)cc4)ccc3c2c(=O)[nH]1` [N-(4-(((1,2-Dihydro-3-methyl-1-oxobenzo[f]quinazolin-8-yl)methyl)amino)benzoyl)-L-glutamic acid], for which, in data set [2] (setting [4]), the IC50 is > 100 µM. On to `Cc1nc2ccc3ccc(CNc4ccc(C(=O)N[C@@H](CCC(=O)O)C(=O)O)s4)cc3c2c(=O)[nH]1` [N-((5-(((1,2-Dihydro-3-methyl-1-oxobenzo[f]quinazolin-9-yl)methyl)amino-2-thienyl)carbonyl)-L-glutamic acid], for which the IC50 in data set [2] (read-out: Tumor Cell Culture Cytotoxicity IC50 SW480, Table E, fully aromatic 3-methyl derivatives) is 0.1 µM.

As for `Nc1nc2ccc3ccc(NS(=O)(=O)c4ccc(C(=O)N[C@@H](CCC(=O)O)C(=O)O)cc4)cc3c2c(=O)[nH]1` [N-(4-(((3-Amino-1,2-dihydro-1-oxobenzo(f)quinazolin-9-yl)amino)sulfonyl)benzoyl)-L-glutamic acid], the IC50 in data set [2] (setting [4]) is > 100 µM. For `CSc1ccc2ccc3nc(N)nc(O)c3c2c1` [3-Amino-9-(methylthio)benzo(f)quinazolin-1(2H)-one], the IC50 in data set [1] (Table A, vs. mammalian enzymes, read-out: I50) was < 1 µM.

Compound `CN(C)S(=O)(=O)c1ccc2ccc3nc(N)[nH]c(=O)c3c2c1` [3-Amino-N,N-dimethyl-1,2-dihydro-1-oxobenzo(f)quinazoline-9-sulfonamide] registered an IC50 in data set [1] of 1 to 300 µM. `Cc1nc2ccc3ccc(S(=O)(=O)Nc4ccc(C(=O)N[C@@H](CCC(=O)O)C(=O)O)cc4)cc3c2c(=O)[nH]1` [N-(4-((1,2-Dihydro-3-methyl-1-oxabenzo(f)quinazolin-9-yl)sulfonamido)benzoyl)-L-glutamic acid]: in data set [1], the IC50 is < 1 µM.
